Where two headings read alike, the source gives them in different places.
Columns and labels:
B. pertussis [1] = type: cell-based, Bordetella pertussis; details: for Growth: 53 h; for Biomass yield after 53 h: sole sulfur source, 35° C.; for Support of growth as the sole source of sulfur: medium containing no other S source
B. pertussis [2] = type: cell-based, Bordetella pertussis
Bordetella pertussis = type: cell-based
B. pertussis [3] = assay: Growth in minimal media containing only one amino acid, shake-flasks; type: cell-based, Bordetella pertussis; details: L-cysteine 125 mM as single amino acid, no thiosulfate added
Protocol: Assays were performed in order to determine whether growth of B. pertussis is possible in minimal media containing a single amino acid as the sole source of carbon and nitrogen. A shake-flask containing 7.5 ml fresh medium (B-CDM containing 0.604 g/L niacin) was inoculated with 10^9 B. pertussis CFUs and incubated at 35° C. (+/−1° C.) and 150 rpm for 24 h (+/−5 h). Cells were harvested by centrifugation, washed twice with NaCl 0.9% (w/v), and resuspended in fresh medium (see composition in Table 12) at a theoretical OD650 nm of 0.5, as calculated from the OD650 nm of the culture before harvest. 1 ml of this cell suspension was used to inoculate shake-flasks containing 30 ml of the medium in Table 12, supplemented with a single amino acid (L-cysteine 125 mM, L-proline 125 mM, L-glutamate 125 mM, L-glutamine 125 mM, L-aspartate 30 mM, L-asparagine 125 mM, L-serine 125 mM, or L-alanine 125 mM) as a source of C and N, and thiosulfate 0.25 mM as a source of S (except for L-Cys supplementation, where no thiosulfate was added). The same medium with ammonium chloride (25 mM) and thiosulfate (0.25 mM), but no amino acid, was used as a negative control. The shake flasks were then incubated for approximately 10 days at 35° C. under constant shaking (150 rpm). Growth was monitored as OD650 nm.

[4] = buffer 2.5 g/L, relative to Tris control
[5] = buffer 5.0 g/L, relative to Tris control
[6] = buffer 10.0 g/L, relative to Tris control
[7] = buffer 20.0 g/L, relative to Tris control
[8] = buffer 6.1 g/L, control conditions

## O=S(O)(O)=S [disodium thiosulfate]
B. pertussis [1]; 1 mM in medium
  Growth: +
  Biomass yield after 53 h: 0.227 OD650nm
B. pertussis [1]; 12 mM in medium
  Growth: +
  Biomass yield after 53 h: 0.472 OD650nm
B. pertussis [1]
  Support of growth as the sole source of sulfur: growth was observed

## O=S(=O)(O)CCCN1CCOCC1 [MOPS, 3-(N-morpholino)propanesulfonic acid]
B. pertussis [2]
  Support of growth as buffer in B-CDM: able to support growth
B. pertussis [2]; [4]
  Relative biomass yield after 24 h: 114%
  Relative biomass yield after 48 h: 91%
B. pertussis [2]; [5]
  Relative biomass yield after 24 h: 85%
  Relative biomass yield after 48 h: 88%
B. pertussis [2]; [6]
  Relative biomass yield after 24 h: 111%
  Relative biomass yield after 48 h: 84%
B. pertussis [2]; [7]
  Relative biomass yield after 24 h: 81%
  Relative biomass yield after 48 h: 76%

## [Cl][Cu][Cl] [CuCl2]
Bordetella pertussis
  Biomass yield: significant increase

## O=S([O-])[O-].[Na+].[Na+] [disodium sulfite]
B. pertussis [1]; 1 mM in medium
  Growth: −
  Biomass yield after 53 h: 0.011 OD650nm
B. pertussis [1]; 12 mM in medium
  Biomass yield after 53 h: 0.007 OD650nm
B. pertussis [1]
  Support of growth as the sole source of sulfur: not able to support growth

## O=P(O)(O)OC(CO)CO [β-glycerophosphate]
B. pertussis [2]
  Support of growth as buffer in B-CDM: able to support growth
B. pertussis [2]; [4]
  Relative biomass yield after 24 h: 88%
  Relative biomass yield after 48 h: 79%
B. pertussis [2]; [5]
  Relative biomass yield after 24 h: 89%
  Relative biomass yield after 48 h: 67%
B. pertussis [2]; [6]
  Relative biomass yield after 24 h: 68%
  Relative biomass yield after 48 h: 59%
B. pertussis [2]; [7]
  Relative biomass yield after 24 h: 46%
  Relative biomass yield after 48 h: 45%

## tris(hydroxymethyl)aminomethane
B. pertussis [2]; [8]
  Relative biomass yield after 24 h: 100%
  Relative biomass yield after 48 h: 100%

## O=S(=O)([O-])[O-].[Na+].[Na+] [disodium sulfate]
B. pertussis [1]; 12 mM in medium
  Growth: −
  Biomass yield after 53 h: 0.015 OD650nm
B. pertussis [1]
  Support of growth as the sole source of sulfur: not able to support growth

## N[C@@H](CS)C(=O)O [L-cysteine]
B. pertussis [3]
  Need for an additional source of sulfur: no additional source of sulfur was required
B. pertussis [1]; 27 mM in medium
  Growth: +
  Biomass yield after 53 h: 0.512 OD650nm
